Assay results reported in ChEMBL document CHEMBL5331060, “Bisindole natural products: A vital source for the development of new anticancer drugs” (Eur J Med Chem, 2022).
Values after ≈ are worked out from the molar mass of the structure shown. Blank lines part the entries; values can stand above or below the compound they belong to.

Columns and labels:
Assay type in all cases: functional, cell-based
AGS = assay: Antiproliferative activity against human AGS cells assessed as inhibition of cell growth incubated for 24 hrs by MTT assay
L1210 = assay: Antiproliferative activity against mouse L1210 cells assessed as inhibition of cell growth incubated for 24 hrs by MTT assay; conditions: L1210, 24 h
A549 [1] = assay: Antiproliferative activity against human A549 cells assessed as inhibition of cell growth incubated for 72 hrs by SRB assay; conditions: A549, 72 h
MCF7 [2] = assay: Antiproliferative activity against human MCF7 cells assessed as inhibition of cell growth incubated for 72 hrs by SRB assay; conditions: MCF7, 72 h
HL-60 [3] = assay: Antiproliferative activity against human HL-60 cells assessed as inhibition of cell growth incubated for 48 hrs by WST-1 assay; conditions: HL-60, 48 h
K562 [4] = assay: Antiproliferative activity against human K562 cells assessed as inhibition of cell growth incubated for 48 hrs by WST-1 assay; conditions: K562, 48 h
MCF7 [5] = assay: Antiproliferative activity against human MCF7 cells assessed as inhibition of cell growth incubated for 48 hrs by MTT assay; conditions: MCF7, 48 h
SW480 = assay: Antiproliferative activity against human SW480 cells assessed as inhibition of cell growth incubated for 48 hrs by MTT assay; conditions: SW480, 48 h
A549 [6] = assay: Antiproliferative activity against human A549 cells assessed as inhibition of cell growth incubated for 48 hrs by MTT assay; conditions: A549, 48 h
HL-60 [7] = assay: Antiproliferative activity against human HL-60 cells assessed as inhibition of cell growth incubated for 48 hrs by MTT assay; conditions: HL-60, 48 h
SMMC-7721 [8] = assay: Antiproliferative activity against human SMMC-7721 cells assessed as inhibition of cell growth incubated for 48 hrs by MTT assay; conditions: SMMC-7721, 48 h
SMMC-7721 [9] = assay: Antiproliferative activity against human SMMC-7721 cells assessed as inhibition of cell growth incubated for 48 hrs by MTS assay; conditions: SMMC-7721, 48 h
K562 [10] = assay: Antiproliferative activity against human K562 cells assessed as inhibition of cell growth by MTT assay
A549 [11] = assay: Antiproliferative activity against human A549 cells assessed as inhibition of cell growth by MTT assay

IC50 (AGS): 1.1 µg/mL (≈ 2.25 µM)
IC50 (L1210): 1.1 µg/mL (≈ 2.25 µM)
SMILES: O=C1N[C@H](c2c[nH]c3cc(Br)ccc23)CN[C@H]1c1c[nH]c2cc(Br)ccc12

IC50 (A549 [1]): 1.19 µM
IC50 (MCF7 [2]): 2.25 µM
SMILES: CC[C@@H]1CN(C)[C@H]2Cc3c([nH]c4ccccc34)[C@H](c3ccc4c5c([nH]c4c3)[C@]3(C(=O)OC)C[C@@H]4C[C@H](CC)[C@@H]3N(CC5)[C@@H]4CCOC)C[C@H]1[C@@H]2C(=O)OC

IC50 (HL-60 [3]): 56.2 µM
IC50 (K562 [4]): 56.2 µM
SMILES: CCC(=O)C[C@@H]1CN(C=O)CCc2c([nH]c3ccccc23)[C@@](C(=O)OC)(c2cc3c(cc2OC)N(C)[C@@H]2[C@]34CCN3CC=C[C@@](CC)(C[C@]2(O)C(=O)OC)[C@H]34)C1

IC50 (A549 [1]): < 10 µM
IC50 (MCF7 [2]): < 10 µM
SMILES: C/C=C1\CN(C)[C@H]2Cc3c([nH]c4ccccc34)[C@H](c3c(OC)ccc4c5c([nH]c34)[C@]3(C(=O)OC)C[C@@H]4C[C@H](CC)[C@@H]3N(CC5)C4)C[C@H]1[C@@H]2C(=O)OC

IC50 (MCF7 [5]): 3.24 µM
IC50 (SW480): 3.24 µM
IC50 (A549 [6]): 3.24 µM
IC50 (HL-60 [7]): 3.24 µM
IC50 (SMMC-7721 [8]): 3.24 µM
SMILES: CC[C@]12C=CCN3CCc4c(n(c5ccccc45)[C@@H](c4cc5c(cc4OC)NC4=C(C(=O)OC)C[C@]6([C@@H](C)OC(C)=O)CCCN7CC[C@@]45[C@@H]76)C1)[C@@H]32

IC50 (SMMC-7721 [9]): 1.72 µM
SMILES: CC[C@]12C=CCN3CC[C@]4(C(=C(C(=O)OC)C1)Nc1cc5c(cc14)[C@@H]1[C@H](O5)[C@@H](O)[C@@]4(CC)C=C(C(=O)OC)C5Nc6c(ccc(OC)c6O)[C@@]56CCN1[C@@H]46)[C@@H]32 (stereo partly drawn)

IC50 (A549 [1]): < 10 µM
IC50 (MCF7 [2]): < 10 µM
SMILES: C/C=C1/CN(C)[C@H]2Cc3c([nH]c4ccccc34)[C@H](c3ccc4[nH]c5c(c4c3)CCN3[C@H]4[C@@H](CC)C[C@H](C[C@@]54C(=O)OC)[C@@H]3CC(C)=O)C[C@H]1[C@@H]2C(=O)OC

IC50 (A549 [1]): > 10 µM
IC50 (MCF7 [2]): < 10 µM
SMILES: CC[C@@H]1CN(C)[C@H]2Cc3c([nH]c4ccccc34)[C@H](c3ccc4c5c([nH]c4c3)[C@]3(C(=O)OC)C[C@@H]4C[C@H](CC)[C@@H]3N(CC5)C4)C[C@@H]1[C@@H]2C(=O)OC

IC50 (MCF7 [5]): 3.24 µM
IC50 (SW480): 3.24 µM
IC50 (A549 [6]): 3.24 µM
IC50 (HL-60 [7]): 3.24 µM
IC50 (SMMC-7721 [8]): 3.24 µM
SMILES: CC[C@]12C=CCN3CCc4c(n(c5cc(OC)ccc45)[C@@H](c4cc5c(cc4OC)NC4=C(C(=O)OC)C[C@]6(CC)CCCN7CC[C@@]45[C@@H]76)C1)[C@@H]32

IC50 (A549 [1]): < 10 µM
IC50 (MCF7 [2]): < 10 µM
SMILES: CC[C@@H]1CN(C)[C@H]2Cc3c([nH]c4ccccc34)[C@H](c3cc4[nH]c5c(c4cc3OC)CCN3C[C@H]4C[C@H](CC)[C@H]3[C@@]5(C(=O)OC)C4)C[C@H]1[C@@H]2C(=O)OC

IC50 (SMMC-7721 [9]): 2.01 µM
SMILES: CC[C@]12C=CCN3CC[C@]4(C(=C(C(=O)OC)C1)Nc1cc(OC)c([C@@H]5[C@H]6O[C@H]6[C@@]6(CC)C=C(C(=O)OC)C7Nc8c(cc(O)c(OC)c8OC)[C@@]78CCN5[C@@H]68)cc14)[C@@H]32 (stereo partly drawn)

IC50 (K562 [10]): 24.2 µM
IC50 (A549 [11]): 24.2 µM
SMILES: CO[C@@]1(C(=O)c2c[nH]c3cc(O)ccc23)N=C(c2c[nH]c3ccccc23)C(=O)N1

IC50 (MCF7 [5]): 4.7 µM
IC50 (SW480): 10.3 µM
IC50 (A549 [6]): 10.3 µM
IC50 (HL-60 [7]): 10.3 µM
IC50 (SMMC-7721 [8]): 10.3 µM
SMILES: C/C=C1/CN2COC[C@]3(C(=O)OC)[C@@H]1C[C@@H](c1c(OC)ccc4c1NC1[C@@]4(O)CCN4C[C@H]5C[C@H](CC)[C@H]4[C@@]1(C(=O)OC)C5)c1[nH]c4ccccc4c1C[C@]23C (stereo partly drawn)

IC50 (AGS): 1.1 µg/mL (≈ 2.7 µM)
IC50 (L1210): 1.1 µg/mL (≈ 2.7 µM)
SMILES: O=C1N[C@H](c2c[nH]c3ccccc23)CN=C1c1c[nH]c2cc(Br)ccc12

SMILES: C/C=C1\CN(C)[C@H]2Cc3c([nH]c4ccccc34)[C@H](c3cc4[nH]c5c(c4cc3OC)CCN3C[C@H]4C[C@H](CC)[C@H]3[C@H]5C4)C[C@H]1[C@@H]2C(=O)OC
IC50 (A549 [1]): < 10 µM
IC50 (MCF7 [2]): < 10 µM

IC50 (HL-60 [3]): 56.2 µM
IC50 (K562 [4]): 56.2 µM
SMILES: CC/C1=C/N(C=O)CCc2c([nH]c3ccccc23)[C@@](C(=O)OC)(c2cc3c(cc2OC)N(C)[C@H]2[C@@](O)(C(=O)OC)[C@H](OC(C)=O)[C@]4(CC)C=CCN5CC[C@]32[C@@H]54)CC(=O)C1

IC50 (K562 [10]): 24.2 µM
IC50 (A549 [11]): 24.2 µM
SMILES: CO[C@@]1(C(=O)c2c[nH]c3cc(O)ccc23)N=C(c2c[nH]c3cc(Br)ccc23)C(=O)N1

IC50 (A549 [1]): < 10 µM
IC50 (MCF7 [2]): < 10 µM
SMILES: C/C=C1\CN(C)[C@H]2Cc3c([nH]c4ccccc34)[C@H](c3c(OC)ccc4c5c([nH]c34)[C@]3(C(=O)OC)C[C@@H]4C[C@H](CC)[C@@H]3N(CC5)[C@@H]4CC(C)=O)C[C@H]1[C@@H]2C(=O)OC
